Measurements: patent US20060035938A1, “2-Pyridone derivatives as inhibitors of neutrophile elastase” (priority 2002, published 2006)

Target: T1, Human Neutrophil Elastase (HNE) (Homo sapiens, UniProt P08246)
T1 construct: Human Neutrophil Elastase (HNE) purified from serum; purchased Calbiochem 324681; host or cells: purified from human serum (so in the source); not recombinant
T1 sequence (P08246 30-267): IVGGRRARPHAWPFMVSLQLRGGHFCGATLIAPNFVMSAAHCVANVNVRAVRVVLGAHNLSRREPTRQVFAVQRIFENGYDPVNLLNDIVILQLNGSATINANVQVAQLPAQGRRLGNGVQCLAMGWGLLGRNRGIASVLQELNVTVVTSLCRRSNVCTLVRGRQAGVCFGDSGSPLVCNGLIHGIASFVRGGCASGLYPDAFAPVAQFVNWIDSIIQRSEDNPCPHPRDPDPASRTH
Assay: Human Neutrophil Elastase Quenched-FRET Assay
Format: biochemical
Conditions: read-out: Inhibition of Human Neutrophil Elastase IC50
Experimental: Human Neutrophil Elastase Quenched-FRET Assay
The assay uses Human Neutrophil Elastase (HNE) purified from serum (Calbiochem art. 324681; Ref. Baugh, R J. et al., 1976, Biochemistry. 15, 836-841). HNB was stored in 50 mM NaOAc, 200 mM NaCl, pH 5.5 with added 30% glycerol at −20° C. The protease substrate used was Elastase Substrate V Fluorogenic, MeOSuc-AAPV-AMC (Calbiochem art. 324740; Ref. Castillo, M. J. et al., 1979, Anal. Biochem. 99, 53-64). The substrate was stored in DMSO at −20° C. The assay additions were as follows: Test compounds and controls were added to black 96-well flat-bottom plates (Greiner 655076), 1 μL in 100% DMSO, followed by 30 μL HNE in assay buffer with 0.01% TritonX-100. The assay buffer constitution was: 100 mM Tris (pH 7.5) and 500 mM NaCl. The enzyme and the compounds were incubated at room temperature for 15 minutes. Then 30 μl substrate in assay buffer was added The assay was stopped after 30 minutes incubation at room temperature by adding 60 μl stop solution (140 mM acetic acid, 200 mM sodium monochloroacetate, 60 mM sodium acetate, pH 4.3). Fluorescence was measured on a Wallac 1420 Victor 2 instrument at settings: Exitation 380 nm, Emission 460 nm. IC50 values were determined using xlfit curve fitting using model 205.

SMILES | IC50 [nM]
O=C(NCc1ccc2c(c1)CCO2)c1c[nH]c(=O)n(-c2cccc(C(F)(F)F)c2)c1=O [N-(2,3-Dihydro-1-benzofuran-5-ylmethyl)-2,4-dioxo-3-[3-(trifluoromethyl)phenyl]-1,2,3,4-tetrahydropyrimidine-5-carboxamide] | 2030
COc1cccc(CNC(=O)c2ccc(C)n(-c3cccc(C(F)(F)F)c3)c2=O)c1OC [N-(2,3-Dimethoxybenzyl)-6-methyl-2-oxo-1-[3-(trifluoromethyl)phenyl]-1,2-dihydropyridine-3-carboxamide] | 701
Cc1cc(CNC(=O)c2ccc(C)n(-c3cccc(C(F)(F)F)c3)c2=O)no1 [6-Methyl-N-[(5-methylisoxazol-3-yl)methyl]-2-oxo-1-[3-(trifluoromethyl)phenyl]-1,2-dihydropyridine-3-carboxamide] | 318
COc1ccc(CNC(=O)c2ccc(C)n(-c3cccc(Br)c3)c2=O)cc1 [1-(3-Bromophenyl)-N-(4-methoxybenzyl)-6-methyl-2-oxo-1,2-dihydropyridine-3-carboxamide] | 353
